{
  "source": "patent US20190018003A1",
  "about": "“TUMOR DISCRIMINATION METHOD, DIAGNOSTIC AGENT FOR TUMOR, AND SENSITIZER FOR TUMOR DIAGNOSIS” (TOTO LTD., priority 2017, published 2019)",
  "key": {"[1]": {"tested_on": "T24 urinary bladder cancer cells", "assay": "Fluorescence enhancement in T24 cells by separate administration of fluorescent dye (ALA) and particles, inverted fluorescence microscope", "type": "cell-based, human", "procedure": "T24 cells (T24, JCRB0711) were prepared. This cell line was subcultured in an MEM medium (MEM, GlutaMAX™ supplement (Thermo Fisher Scientific), 10 v/v % FBS (Thermo Fischer Scientific)). The cultured cells which reached a logarithmic growth phase 3 days or 4 days later were peeled off with Trypsin/EDTA (Thermo Fisher Scientific) and, after the reaction was terminated in an MEM medium, centrifuged. The cell pellet obtained was suspended in an MEM medium. The cell suspension was subjected to measurement of cell density, inoculated onto a 6-well plate at a density of 3.6×10^4 cells/2 ml/well, and cultured for 3 days.\nAn aqueous ALA solution (50 mmol/l) was mixed into an MEM medium (MEM, GlutaMAX™ supplement (Thermo Fisher Scientific)) to form a 2 mmol/l ALA solution. Further, an aqueous solution of light scattering particles (2) (ii) was mixed into an MEM medium to form a 0.001 w/v % light scattering particle solution.\nEvaluation was performed as follows. The medium of the T24 cells on a 6-well plate, obtained in Example 3, was removed by an aspirator, and thereto was added 2 ml of PBS (−) (Thermo Fisher Scientific). Once again, PBS (−) was removed by an aspirator, thereto was added 2 ml of an ALA solution, and the system was cultured for 2 hours. Then, the ALA solution on the 6-well plate was removed by an aspirator, thereto was added 2 ml of a light scattering particle solution, and the system was cultured for 2 hours. Further, the particle solution on the 6-well plate was removed by an aspirator, the residue was washed with HBSS (−) (Thermo Fisher Scientific), HBSS (−) was removed gain by an aspirator, to the residue was added 2 ml of HBSS (−), and the solution was used for observation and detection of fluorescence.\nObservation and detection of fluorescence was performed by using an inverted fluorescence microscope (ECLIPSE Ti-E, Nikon). By using a halogen light source lamp and a 450 nm dichroic mirror, excitation light was irradiated through a 410 nm band pass filter of a 25 nm half-band width, and fluorescence was passed through a 600 nm long-pass filter. There were used an eyepiece of 10 times magnification and an objective lens of 20 times magnification and numerical aperture of 0.75. The irradiation aperture, exposure time, and gain were set to ND=8, 400 ms, and 14.0×, respectively. Fluorescent images were acquired by a cooling CCD color camera (DS-Fi3, Nikon) as digital images. By using an image analysis device IS-Elements AR ver.4.60 (Nikon), fluorescence was detected by subtracting luminance corresponding to dark noise from the image acquired, thereafter obtaining average luminance of all pixels where fluorescence is acquired, and calculating a fluorescence intensity. Also, the image acquired was observed visually.\nRelative fluorescence intensity was calculated by using the fluorescence intensities acquired above according to the following formula:\n[relative fluorescence intensity]=[fluorescence intensity under each condition]/[fluorescence intensity immediately after irradiation of observation light in the case of administration of fluorescent dye only]. […]\nAn aqueous ALA solution (50 mmol/l) was mixed into an MEM medium (MEM, GlutaMAX™ supplement (Thermo Fisher Scientific)) to form a 2 mmol/l ALA solution. An aqueous solution of silica particles having a particle size of 100 nm (sicastar, Silica Microsphere, Plain, 25 mg/ml, produced by Polyscience) was mixed into the MEM medium to form a 0.01 w/v % silica particle solution.\nEvaluation was performed by removing the medium of the T24 cells on a 6-well plate, obtained in Example 3, under conditions where, in Example 4, PBS (−) and HBSS (−) were respectively changed to MEM medium and MEM medium (no glutamine, no phenol red (Thermo Fisher Scientific)), and the solution was used for detection of fluorescence. […]"}, "[2]": {"tested_on": "T24 urinary bladder cancer cells", "assay": "Co-culture in the same visual field, fluorescence of T24 cell region", "type": "cell-based, human", "settings": "Example 11, T24 cell line, ALA 2 mmol/l, particles 0.001 w/v %", "from_the_text": "Co-culture pertaining to the present example for having the tumor cells and the immortalized normal cells exist in the same visual field will be described with reference to FIGS. 1A and 1B. For the co-culture, there was used CytoSelect™ 24-Well Cell Co-Culture System (manufactured by COSMO BIO). The T24 cell line was subcultured in an MEM medium (MEM, GlutaMAX™ supplement (Thermo Fisher Scientific), 10 v/v % FBS (Thermo Fisher Scientific)). The cultured cells which reached a logarithmic growth phase 3 days or 4 days later were peeled off with Trypsin/EDTA (Thermo Fisher Scientific) and, after the reaction was terminated in an MEM medium, centrifuged. The cell pellet obtained was suspended in an MEM medium. The cell suspension was subjected to measurement of cell density and inoculated onto a well at a density of 4.4×10^4 cells/0.225 ml/well, the well having an insert 2 of an 8 mm diameter disposed for preparing a cell-free region therein, and cultured for 2 days to form a monolayer in region 3 around the insert 2.\nWI-38 cells were subcultured in an MEM medium. […]\nDetection of fluorescence was performed in the same manner as in Example 4 by using an inverted fluorescence microscope (ECLIPSE Ti-E, Nikon). Images having a visual field of 3300 μm (width)×2200 μm (length) were obtained, and relative fluorescence intensities were calculated in the same manner as in Example 5."}},
  "data": [
    {"smiles": "NCC(=O)CCC(=O)O", "note": "[fluorescent dye, 5-aminolevulinic acid]", "values": [
      {"measurement": "Relative fluorescence intensity", "setting": "[1]; Example 4, T24, ALA 2 mmol/l 2 h, then particles 0.001 w/v % 2 h, 50 seconds after observation light irradiation", "value": 0.4},
      {"measurement": "Relative fluorescence intensity", "setting": "[1]; Example 4, T24, ALA 2 mmol/l 2 h, then particles 0.001 w/v % 2 h, 150 seconds after observation light irradiation", "value": 0.1},
      {"measurement": "Relative fluorescence intensity", "setting": "[1]; Example 4, T24, ALA 2 mmol/l 2 h, then particles 0.001 w/v % 2 h, immediately after observation light irradiation, relative to dye only immediately after irradiation", "value": 1.0},
      {"measurement": "Relative fluorescence intensity", "setting": "[1]; Example 7, T24, ALA 2 mmol/l, administration of fluorescent dye only", "value": 1.0},
      {"measurement": "Relative fluorescence intensity", "setting": "[1]; Example 10, T24 cell line, ALA 2 mmol/l, particles 0.001 w/v %", "value": 1.0},
      {"measurement": "Relative fluorescence intensity", "setting": "[1]; Example 12, T24, ALA 2 mmol/l, silica particles 0.01 w/v %, immediately after observation light irradiation", "value": 1.0},
      {"measurement": "Relative fluorescence intensity", "setting": "[1]; Example 13, T24, ALA 2 mmol/l, polystyrene particles 0.01 w/v %, immediately after observation light irradiation", "value": 1.0},
      {"measurement": "Relative fluorescence intensity", "setting": "[1]; Example 14, T24, ALA 2 mmol/l, particles 0.001 w/v %, immediately after observation light irradiation", "value": 1.0},
      {"measurement": "Relative fluorescence intensity", "setting": "[1]; Example 15, T24, ALA 2 mmol/l, particles 0.001 w/v %, immediately after observation light irradiation", "value": 1.0},
      {"measurement": "Relative fluorescence intensity", "setting": "[2]", "value": 1.6}
    ]}
  ]
}
